One data set concerns S. aureus MSSA strains. Nature of the data set: Bioscreen-C dose response growth curve of MSSA over 24 hours. Particulars: HCl salts, doses from 100 μg downwards, 10 mM sodium bicarbonate buffer pH-7.4, OD 420-580 nm. The format is cell-based, Staphylococcus aureus. As for the experimental part: Bioscreen-C instrument was used to detect the MIC and MBC of PNA-CPP derivatives against S. aureus MSSA strains. Different concentrations of PNA-CPP derivatives were prepared in 10 mM of sodium bicarbonate buffer pH-7.4 and added to ˜5.0 Log 10 CFUs in a Honey comb Bioscreen-C plate.
Compound I-V were assayed against MSSA. FIG. 12-16 show a dose response growth curve of MSSA in presence of increasing concentrations of Compound I-HCl (FIG. 12), Compound II-HCl (FIG. 13), Compound III-HCl (FIG. 14), Compound IV-HCl (FIG. 15), and Compound V-HCl (FIG. 16), determined in a Bioscreen-C spectrophotometer.

In another data set the test system is S. aureus MRSA strains. Description: Bioscreen-C dose response growth curve of MRSA over 24 hours. The format is cell-based, Staphylococcus aureus. Particulars: HCl salts, doses from 100 μg downwards, 10 mM sodium bicarbonate buffer pH-7.4, OD 420-580 nm. As for the experimental part:
Bioscreen-C instrument was used to detect the MIC and MBC of PNA-CPP derivatives against S. aureus MRSA strains. Different concentration of PNA-CPP derivatives were prepared in 10 mM of sodium bicarbonate buffer pH-7.4 and added to ˜5.0 Log 10 CFUs in a Honey comb Bioscreen-C plate.
Compound I-V were assayed against MRSA. FIG. 6-10 show a dose response growth curve of MRSA in presence of increasing concentrations of Compound I-HCl (FIG. 6), Compound II-HCl (FIG. 7), Compound III-HCl (FIG. 8), Compound IV-HCl (FIG. 9), and Compound V-HCl (FIG. 10), determined in a Bioscreen-C spectrophotometer.

Experimental findings from patent publication US20200325178A1, “PEPTIDE NUCLEIC ACID MOLECULES FOR TREATMENT OF GRAM POSITIVE BACTERIAL INFECTION” (priority 2017, published 2020) are described below.

For the substance “Compound III: PNA-CPP conjugate: PNA SEQ ID NO: 51, Glycine-Glycine linker, CPP BXRXRRXRRXRRXR; FIG. 3 (CGTCATACGCGGTCC; all peptide nucleic acid (PNA); PNA conjugated to cell-penetrating peptide via glycine-glycine linker, end not given here, further chemistry not fully specified)”, the “lowest dose at which no MSSA growth was observed (growth curve)” value with S. aureus MSSA strains amounted to 25 µg. Besides, the “lowest dose at which no MRSA growth was observed (growth curve)” value in the data set with S. aureus MRSA strains stood at 12.5 µg.
